Numbers after ± are expanded uncertainties.
Experiments:
[1] = xn = mol fraction of the nth substance listed

CCCCC(O)CO (stereo unspecified) [1,2-hexanediol]
Details	surface tension liquid-gas [mN/m]
283.15 K	24.7 ± 0.8
288.15 K	24.4 ± 0.8
293.15 K	24.1 ± 0.8
298.15 K	23.8 ± 0.8
303.15 K	23.6 ± 0.8
308.15 K	23.3 ± 0.8

CCCCC(O)CO (stereo unspecified) [1,2-hexanediol] + O
surface tension liquid-gas [mN/m], [1]
Details	283.15 K	288.15 K	293.15 K	298.15 K	303.15 K	308.15 K
x1 = 0.001	55.1 ± 1	54.5 ± 1	54.3 ± 1	53.8 ± 1	53.3 ± 1	52.7 ± 0.9
x1 = 0.0016	47.5 ± 0.9	47.3 ± 0.9	47 ± 0.9	46.6 ± 0.9	46.3 ± 0.9	45.6 ± 0.9
x1 = 0.002	45.1 ± 0.9	44.5 ± 0.9	43.9 ± 0.9	43.4 ± 0.9	42.8 ± 0.9	42.3 ± 0.9
x1 = 0.0034	41.6 ± 0.9	40.6 ± 0.9	40 ± 0.9	39.3 ± 0.9	38.5 ± 0.9	38.1 ± 0.9
x1 = 0.0052	37.3 ± 0.9	36.3 ± 0.8	35.5 ± 0.8	34.7 ± 0.8	33.8 ± 0.8	33 ± 0.8
x1 = 0.0077	32.2 ± 0.8	31.4 ± 0.8	30.8 ± 0.8	30 ± 0.8	29.5 ± 0.8	28.9 ± 0.8
x1 = 0.0108	28.7 ± 0.8	28.1 ± 0.8	27.7 ± 0.8	27.2 ± 0.8	26.8 ± 0.8	26.4 ± 0.8
x1 = 0.014	27.6 ± 0.8	26.9 ± 0.8	26.3 ± 0.8	25.7 ± 0.8	25.2 ± 0.8	24.8 ± 0.8
x1 = 0.0175	26.4 ± 0.8	25.9 ± 0.8	25.7 ± 0.8	25.3 ± 0.8	24.8 ± 0.8	24.4 ± 0.8
x1 = 0.0251	26.2 ± 0.8	25.9 ± 0.8	25.5 ± 0.8	25.2 ± 0.8	25 ± 0.8	24.7 ± 0.8
x1 = 0.036	25.7 ± 0.8	25.5 ± 0.8	25.2 ± 0.8	25 ± 0.8	24.7 ± 0.8	24.5 ± 0.8
x1 = 0.046	25.7 ± 0.8	25.4 ± 0.8	25.2 ± 0.8	24.9 ± 0.8	24.7 ± 0.8	24.4 ± 0.8
x1 = 0.0514	25.7 ± 0.8	25.4 ± 0.8	25.2 ± 0.8	24.9 ± 0.8	24.7 ± 0.8	24.4 ± 0.8
x1 = 0.0655	25.6 ± 0.8	25.4 ± 0.8	25.1 ± 0.8	24.9 ± 0.8	24.4 ± 0.8	24.1 ± 0.8
x1 = 0.0831	25.6 ± 0.8	25.3 ± 0.8	25.1 ± 0.8	24.8 ± 0.8	24.5 ± 0.8	24.1 ± 0.8
x1 = 0.0968	25.1 ± 0.8	24.9 ± 0.8	24.6 ± 0.8	24.4 ± 0.8	24.3 ± 0.8	24 ± 0.8
x1 = 0.1119	24.9 ± 0.8	24.7 ± 0.8	24.4 ± 0.8	24.1 ± 0.8	23.9 ± 0.8	23.6 ± 0.8
x1 = 1	24.7 ± 0.8	24.4 ± 0.8	24.1 ± 0.8	23.8 ± 0.8	23.6 ± 0.8	23.3 ± 0.8

CC(O)CCCCO (stereo unspecified) [1,5-hexanediol]
Details	surface tension liquid-gas [mN/m]
283.15 K	34.6 ± 0.9
288.15 K	34.3 ± 0.8
293.15 K	34.1 ± 0.8
298.15 K	33.9 ± 0.8
303.15 K	33.7 ± 0.8
308.15 K	33.5 ± 0.8

CC(O)CCCCO (stereo unspecified) [1,5-hexanediol] + O
surface tension liquid-gas [mN/m], [1]
Details	283.15 K	288.15 K	293.15 K	298.15 K	303.15 K	308.15 K
x1 = 0.001	65.3 ± 1	65 ± 1	63.8 ± 1	62.8 ± 1	62.3 ± 1	61.2 ± 1
x1 = 0.0021	58.3 ± 1	57.6 ± 1	56.9 ± 1	56.1 ± 1	55.7 ± 1	55 ± 1
x1 = 0.0037	55.3 ± 1	54.7 ± 1	54.2 ± 1	53.6 ± 1	52.9 ± 0.9	52.4 ± 0.9
x1 = 0.0053	53 ± 0.9	52.5 ± 0.9	51.7 ± 0.9	51.2 ± 0.9	50.6 ± 0.9	50.3 ± 0.9
x1 = 0.0071	51 ± 0.9	50.4 ± 0.9	49.9 ± 0.9	49.3 ± 0.9	48.8 ± 0.9	48.5 ± 0.9
x1 = 0.0089	50 ± 0.9	49.2 ± 0.9	48.6 ± 0.9	47.9 ± 0.9	47.3 ± 0.9	47 ± 0.9
x1 = 0.0111	47.5 ± 0.9	46.7 ± 0.9	46.4 ± 0.9	46 ± 0.9	45.7 ± 0.9	45 ± 0.9
x1 = 0.0145	45.3 ± 0.9	44.7 ± 0.9	44.5 ± 0.9	43.8 ± 0.9	43.4 ± 0.9	42.9 ± 0.9
x1 = 0.0194	43 ± 0.9	42.2 ± 0.9	41.3 ± 0.9	40.3 ± 0.9	39.8 ± 0.9	38.6 ± 0.9
x1 = 0.0324	39.7 ± 0.9	39.1 ± 0.9	38.6 ± 0.9	38 ± 0.9	37.5 ± 0.9	37 ± 0.8
x1 = 0.0507	38 ± 0.9	37.3 ± 0.9	36.9 ± 0.8	36.6 ± 0.8	35.7 ± 0.8	35 ± 0.8
x1 = 0.0738	36.9 ± 0.8	36.5 ± 0.8	36.1 ± 0.8	35.8 ± 0.8	34.9 ± 0.8	34.4 ± 0.8
x1 = 1	34.6 ± 0.9	34.3 ± 0.8	34.1 ± 0.8	33.9 ± 0.8	33.7 ± 0.8	33.5 ± 0.8

OCCCCCCO [1,6-hexanediol] + O
surface tension liquid-gas [mN/m], [1]
Details	283.15 K	288.15 K	293.15 K	298.15 K	303.15 K	308.15 K
x1 = 0.0013	63.8 ± 1	63.1 ± 1	62.3 ± 1	62 ± 1	61.1 ± 1	60.6 ± 1
x1 = 0.0017	62.5 ± 1	61.8 ± 1	61.2 ± 1	60.4 ± 1	59.7 ± 1	58.8 ± 1
x1 = 0.0021	61.5 ± 1	60.7 ± 1	60.3 ± 1	59.4 ± 1	58.5 ± 1	57.6 ± 1
x1 = 0.0029	60 ± 1	59.2 ± 1	58.6 ± 1	57.5 ± 1	56.8 ± 1	56 ± 1
x1 = 0.0057	56.9 ± 1	55.7 ± 1	55 ± 1	53.8 ± 1	53.3 ± 1	52.4 ± 0.9
x1 = 0.007	55.1 ± 1	54.3 ± 1	53.4 ± 1	52.1 ± 0.9	51.7 ± 0.9	50.9 ± 0.9
x1 = 0.0089	53.3 ± 1	52.4 ± 0.9	51.4 ± 0.9	50.2 ± 0.9	50 ± 0.9	49.4 ± 0.9
x1 = 0.014	50.6 ± 0.9	49.4 ± 0.9	49.1 ± 0.9	48.3 ± 0.9	48.3 ± 0.9	47.2 ± 0.9
x1 = 0.0159	49.4 ± 0.9	48.6 ± 0.9	48 ± 0.9	47.5 ± 0.9	47 ± 0.9	46.6 ± 0.9
x1 = 0.0237	48.5 ± 0.9	47.6 ± 0.9	47 ± 0.9	46.5 ± 0.9	46.1 ± 0.9	45.8 ± 0.9
x1 = 0.0373	46.1 ± 0.9	45.7 ± 0.9	45.4 ± 0.9	45 ± 0.9	44.5 ± 0.9	44.2 ± 0.9
x1 = 0.0463	44.4 ± 0.9	44.1 ± 0.9	43.9 ± 0.9	43.6 ± 0.9	43.3 ± 0.9	43 ± 0.9
x1 = 0.0545	43.7 ± 0.9	43.4 ± 0.9	43.2 ± 0.9	42.9 ± 0.9	42.5 ± 0.9	42.2 ± 0.9
x1 = 0.0742	43.5 ± 0.9	43.3 ± 0.9	43 ± 0.9	42.8 ± 0.9	42.4 ± 0.9	42.1 ± 0.9
x1 = 0.098	43.4 ± 0.9	43.1 ± 0.9	42.9 ± 0.9	42.7 ± 0.9	42.4 ± 0.9	42.1 ± 0.9
x1 = 0.1165	43.4 ± 0.9	43.1 ± 0.9	42.8 ± 0.9	42.6 ± 0.9	42.3 ± 0.9	42 ± 0.9

CC(O)CCC(C)O (stereo unspecified) [2,5-hexanediol]
Details	surface tension liquid-gas [mN/m]
283.15 K	32.3 ± 0.8
288.15 K	32 ± 0.8
293.15 K	31.9 ± 0.8
298.15 K	31.6 ± 0.8
303.15 K	31.3 ± 0.8
308.15 K	31 ± 0.8

CC(O)CCC(C)O (stereo unspecified) [2,5-hexanediol] + O
surface tension liquid-gas [mN/m], [1]
Details	283.15 K	288.15 K	293.15 K	298.15 K	303.15 K	308.15 K
x1 = 0.001	68.5 ± 1.1	67.9 ± 1	67.7 ± 1	67.2 ± 1	66.6 ± 1	65.9 ± 1
x1 = 0.0027	60.2 ± 1	59.6 ± 1	59.1 ± 1	58.6 ± 1	57.9 ± 1	57.3 ± 1
x1 = 0.0037	56.9 ± 1	56.3 ± 1	55.6 ± 1	55.2 ± 1	54.7 ± 1	54.2 ± 1
x1 = 0.0068	53.5 ± 1	52.9 ± 0.9	52.3 ± 0.9	51.6 ± 0.9	51.2 ± 0.9	50.7 ± 0.9
x1 = 0.0088	51.6 ± 0.9	51 ± 0.9	50.3 ± 0.9	49.5 ± 0.9	48.6 ± 0.9	48 ± 0.9
x1 = 0.0103	50 ± 0.9	49.4 ± 0.9	49.2 ± 0.9	48.7 ± 0.9	48.2 ± 0.9	47.8 ± 0.9
x1 = 0.0135	47.9 ± 0.9	47.5 ± 0.9	47.2 ± 0.9	46.8 ± 0.9	46.3 ± 0.9	45.8 ± 0.9
x1 = 0.0168	46.1 ± 0.9	45.7 ± 0.9	45.5 ± 0.9	45.2 ± 0.9	44.9 ± 0.9	44.6 ± 0.9
x1 = 0.0263	43.4 ± 0.9	43.2 ± 0.9	42.7 ± 0.9	42.1 ± 0.9	41.6 ± 0.9	41.3 ± 0.9
x1 = 0.037	41.5 ± 0.9	41.1 ± 0.9	40.4 ± 0.9	40 ± 0.9	39.7 ± 0.9	39.2 ± 0.9
x1 = 0.0462	40.4 ± 0.9	40.1 ± 0.9	39.7 ± 0.9	39 ± 0.9	38.7 ± 0.9	38.2 ± 0.9
x1 = 0.063	39.1 ± 0.9	38.6 ± 0.9	38.1 ± 0.9	37.4 ± 0.9	37.1 ± 0.8	36.6 ± 0.8
x1 = 0.0808	38.5 ± 0.9	38 ± 0.9	37.5 ± 0.9	37 ± 0.8	36.5 ± 0.8	36.2 ± 0.8
x1 = 0.096	38.3 ± 0.9	37.8 ± 0.9	37.3 ± 0.9	36.8 ± 0.8	36.3 ± 0.8	36 ± 0.8
x1 = 0.1117	37.7 ± 0.9	37.2 ± 0.9	36.9 ± 0.8	36.2 ± 0.8	35.9 ± 0.8	35.6 ± 0.8
x1 = 1	32.3 ± 0.8	32 ± 0.8	31.9 ± 0.8	31.6 ± 0.8	31.3 ± 0.8	31 ± 0.8

O [water]
Details	surface tension liquid-gas [mN/m]
283.15 K	74.1 ± 1.1
288.15 K	73.4 ± 1.1
293.15 K	72.6 ± 1.1
298.15 K	71.8 ± 1.1
303.15 K	71 ± 1.1
308.15 K	70.2 ± 1.1

O [water] + CC(O)CCC(C)O
[1], x2 = 0
Details	surface tension liquid-gas [mN/m]
283.15 K	74.1 ± 1.1
288.15 K	73.4 ± 1.1
293.15 K	72.6 ± 1.1
298.15 K	71.8 ± 1.1
303.15 K	71 ± 1.1
308.15 K	70.2 ± 1.1

O [water] + CC(O)CCCCO
[1], x2 = 0
Details	surface tension liquid-gas [mN/m]
283.15 K	74.1 ± 1.1
288.15 K	73.4 ± 1.1
293.15 K	72.6 ± 1.1
298.15 K	71.8 ± 1.1
303.15 K	71 ± 1.1
308.15 K	70.2 ± 1.1

O [water] + CCCCC(O)CO
[1], x2 = 0
Details	surface tension liquid-gas [mN/m]
283.15 K	74.1 ± 1.1
288.15 K	73.4 ± 1.1
293.15 K	72.6 ± 1.1
298.15 K	71.8 ± 1.1
303.15 K	71 ± 1.1
308.15 K	70.2 ± 1.1

O [water] + OCCCCCCO
[1], x2 = 0
Details	surface tension liquid-gas [mN/m]
283.15 K	74.1 ± 1.1
288.15 K	73.4 ± 1.1
293.15 K	72.6 ± 1.1
298.15 K	71.8 ± 1.1
303.15 K	71 ± 1.1
308.15 K	70.2 ± 1.1

Source: the NIST ThermoML archive (doi:10.1016/j.fluid.2007.05.029)
